Data: patent US20220387375A1, “TRPV1 ACTIVATION-MODULATING COMPLEX MIXTURES OF CANNABINOIDS AND/OR TERPENES” (GBS Global Biopharma, Inc., priority 2018, published 2022)

Target: T1, TRPV1 (Rattus norvegicus, UniProt O35433)
T1 construct: FLAG; expressed in transfected cells
Experiment: Bulk calcium assay (Fluo-4) in HEK-TRPV1 overexpressing cells
Format: cell-based
Conditions: for mean maximal Ca^2+ signal RFU achieved 0-180 s (SD), TRPV1: bulk calcium assay; for calcium fluxes: dosing concentrations of 30-50 μM; for initiation of a calcium flux: single dose 10 μM, 1 mM external Ca2+
Procedure: Cells were washed and incubated with 0.2 micromolar Fluo-4 for 30 minutes at 37° C. in a standard modified Ringer's solution of the following composition (in mM): NaCl 145, KCl 2.8, CsCl 10, CaCl2 10, MgCl2 2, glucose 10, Hepes·NaOH 10, pH 7.4, 330 mOsm. Cells were transferred to 96-well plates at 50,000 cells/well and stimulated as indicated. Calcium signals were acquired using a Flexstation 3 (Molecular Devices, Sunnydale, USA). Data was analyzed using SoftMax® Pro 5 (Molecular Devices). Where indicated, nomically calcium-free external conditions were achieved by the preparation of 0 mM CaCl2 Ringer solution containing 1 mM EGTA.
The cell culture system described in U.S. patent application Ser. No. 15/986,316 was used to test the TRPV1-mediated calcium response to various terpenes. The HEK293 cell line was stably transfected with the pcDNA6TR (Invitrogen, CA) plasmid (encoding the tetracycline-sensitive TREx repressor protein), and was maintained in DMEM+10% fetal bovine serum (inactivated at 55° C. for 1 h)+2 mM glutamine in humidified 5% CO2 atmosphere at 37° C. Selection pressure on the TRex 293 cells was maintained by continuous culture in 10 μg/ml Blasticidin (Sigma, St Louis, Mo.).
For production of TRex HEK293 cells with inducible expression of TRPV1, parental cells were electroporated with the rat TRPV1 cDNA in the pcDNA4TO vector and clonal cell lines were selected by limiting dilution in the presence of 400 μg/ml zeocin (Invitrogen, CA). TRPV1 expression was induced using 1 μg/ml tetracycline for 16 h at 37° C. Stable lines were screened for inducible protein expression using anti-FLAG Western blot, and inducible expression was confirmed.
Calcium responses mediated by TRPV1 were tested by calcium assay in the cell culture system. Cells were washed and incubated with 0.2 μM fluo-4 acetoxymethyl ester (“Fluo-4”) for 30 minutes at 37° C. in a standard modified Ringer's solution of the following composition (in mM): NaCl 145, KCl2.8, CsCl10, CaCl2 10, MgCl2 2, glucose 10, Hepes·NaOH 10, pH 7.4, 330 mOsm. Cells were transferred to 96-well plates at 50,000 cells/well and stimulated as indicated. The terpenes used were alpha-bisabool, alpha-pinene, myrcene, camphene, linalool, ocimene, humulene, beta-caryophyllene, beta-pinene, limonene, and nerolidol. The terpenes were diluted in DMSO and added to the wells to a final concentration of 10 μM. Vehicle (DMSO) alone was run as a negative control and subtracted from the terpene traces. Calcium signals were acquired using a Flexstation 3 (Molecular Devices, Sunnydale, USA). Data was analyzed using SoftMax® Pro 5 (Molecular Devices).
Calcium responses mediated by TRPA1, TRPM8, TRPV2, and TRPV1 were tested by calcium assay in the cell culture system. Cells were washed and incubated with 0.2 μM fluo-4 acetoxymethyl ester (“Fluo-4”) for 30 minutes at 37° C. in a standard modified Ringer's solution of the following composition (in mM): NaCl 145, KCl 2.8, CsCl 10, CaCl2 10, MgCl2 2, glucose 10, Hepes·NaOH 10, pH 7.4, 330 mOsm. Cells were transferred to 96-well plates at 50,000 cells/well and stimulated with 10 μM myrcene diluted in DMSO. Vehicle (DMSO) was used as a negative control. Vehicle traces were subtracted from the myrcene traces for each cell line.
As shown in FIGS. 16A-H, a variety of cannabinoids were capable of initiating Ca^2+ fluxes in HEK-TRPV1 overexpressing cells, except for cannabigerol and cannabinol. Comparative responses to a single dose (10 μM concentration) of a variety of cannabinoids were made in the presence of 1 mM external Ca^2+, which are population-based, or bulk Ca^2+, measurements with each trace representing averaged triplicates of 100,000 cells per sample. […] For each of the cannabinoid compounds, dose responses at the population level were performed. […] The lower limit of detectable calcium responses in this system varied from 10-100 nM (CBDV, CBGA) to 1-10 μM.

T1 sequence (O35433 whole entry): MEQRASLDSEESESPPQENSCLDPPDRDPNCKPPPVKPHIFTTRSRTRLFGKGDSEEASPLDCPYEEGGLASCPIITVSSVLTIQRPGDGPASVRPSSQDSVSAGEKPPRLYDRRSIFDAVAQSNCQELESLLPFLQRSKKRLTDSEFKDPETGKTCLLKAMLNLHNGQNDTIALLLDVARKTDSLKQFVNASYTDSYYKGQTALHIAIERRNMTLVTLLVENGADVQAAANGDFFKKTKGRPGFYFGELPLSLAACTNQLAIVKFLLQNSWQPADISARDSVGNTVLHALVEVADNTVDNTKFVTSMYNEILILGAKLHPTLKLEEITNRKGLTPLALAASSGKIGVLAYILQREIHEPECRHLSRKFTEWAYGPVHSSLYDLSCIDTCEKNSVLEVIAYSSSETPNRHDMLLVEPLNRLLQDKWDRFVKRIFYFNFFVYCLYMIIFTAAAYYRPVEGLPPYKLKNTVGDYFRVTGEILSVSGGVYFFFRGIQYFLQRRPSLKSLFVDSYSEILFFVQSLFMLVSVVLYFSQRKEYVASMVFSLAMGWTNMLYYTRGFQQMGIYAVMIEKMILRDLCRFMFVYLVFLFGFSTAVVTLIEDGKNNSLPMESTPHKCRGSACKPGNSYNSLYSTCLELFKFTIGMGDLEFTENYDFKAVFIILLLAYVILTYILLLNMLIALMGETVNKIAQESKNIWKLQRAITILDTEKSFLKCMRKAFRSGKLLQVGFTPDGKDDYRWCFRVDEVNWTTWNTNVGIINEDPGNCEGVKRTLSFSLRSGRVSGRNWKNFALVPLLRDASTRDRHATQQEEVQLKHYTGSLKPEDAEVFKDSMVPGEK

Structure (SMILES) | mean maximal Ca^2+ signal RFU achieved 0-180 s (SD), TRPV1 | calcium fluxes | initiation of a calcium flux
C=C(C)[C@@H]1CCC(C)=C[C@H]1c1c(O)cc(CCCCC)cc1O [CBD, Cannabidiol] | 11.88 (0.23) RFU |  | 
C=C(C)[C@@H]1CCC(C)=C[C@H]1c1c(O)cc(CCC)cc1O [CBDV, Cannabidivarin] | 6.51 (0.07) RFU |  | 
CCCCCc1cc(O)c(C/C=C(\C)CCC=C(C)C)c(O)c1 [CBG, Cannabigerol] | 0.41 (0.04) RFU | small calcium fluxes | did not initiate a calcium flux
CCCCCc1cc(O)c2c(c1)OC(C)(C)c1ccc(C)cc1-2 [CBN, Cannabinol] | 0.89 (0.08) RFU | small and transient calcium transient fluxes | did not initiate a calcium flux
